Laboratory results from US20220380342A1, “BIPHENYL DERIVATIVES FOR BLOCKING PD-1/PD-L1 INTERACTION, PREPARATION METHOD THEREFOR AND USE THEREOF” (Abbisko Therapeutics Co., Ltd., priority 2019, published 2022).

Columns and labels:
[1] = molecular target: T1, interaction between PD-1 and PD-L1 (Homo sapiens, UniProt Q9NZQ7); assay: PD1-PDL1 HTRF binding activity test; conditions: Cisbio PD-1/PD-L1 binding assay kit; percent inhibition vs DMSO
T1 construct: purchased Cisbio 64ICP01PEG or 64ICP01PEH
Description: The effect of compounds of the examples of the present invention on the interaction between PD-1 and PD-L1 was determined by the PD-1/PD-L1 binding assay kit from Cisbio (#64ICP01PEG or 64ICP01PEH). The detailed experimental process was as follows:
1) Pre-diluted compound solution, 4 μL of Tag1-PD-L1 and 4 μL of Tag2-PD1 were added to each well of a 384-well plate;
2) After the mixture was incubated at room temperature for 15 min, 5 μL of anti-Tag1-Eu3+ antibody and 5 μL of anti-Tag2-XL665 antibody were then added;
3) After incubated for 2 hrs at room temperature or overnight at 4° C., plates were read on Envision of Perkin Elmer; and readings at 665 nm and 620 nm were recorded, and the ratio of the two readings was taken as a reading for each well;
4) The reading of each well after compound treatment was compared with the reading of DMSO treated wells to obtain the percent inhibition of the compound; and
5) IC50 values of compounds of the examples of the present invention were determined by non-linear regression analysis of percent inhibition at different compound concentrations.

[2] = molecular target: T2, interaction between PD-1 and PD-L1 expressed on cell surfaces (Jurkat/NF-κB-luc/PD1 cells cocultured with Raji-PD-L1 cells) (Homo sapiens, UniProt Q9NZQ7); assay: Jurkat reporter gene cellular assay; type: cell-based; conditions: OKT3 1 μg/mL stimulation, 6 hrs, activation fold vs DMSO
T2 construct: expressed in transfected cells; host or cells: Raji cells (PD-L1); Jurkat cells (PD-1, NF-κB-luc reporter)
Description: The effect of compounds of the examples of the present invention on the interaction between PD-1 and PD-L1 expressed on cell surfaces, and the related influence on T cell functions, were determined by a Jurkat reporter gene cellular assay.
Briefly, the reporter gene plasmid of NF-κB-luc and the plasmid of human PD-1 were transfected into Jurkat cells to establish a stably transfected cell line capable of stably expressing both PD-1 and NF-κB-Luc reporter genes; the expression level of PD-1 on the cell surface was confirmed by flow cytometry; and the expression of the reporter gene was confirmed via the response of the reporter gene stimulated by OKT-3 and Raji cells.
In addition, the plasmid of human PD-L1 was transfected into Raji cells to obtain a cell line capable of stably expressing PD-L1. Jurkat/NF-κB-luc/PD1 cells and Raji-PD-L1 cells were then cocultured and stimulated with OKT-3. On this basis, the compounds were added, and the enhancement of the signal pathway of T cell activation by the inhibitory effect of the compounds on the interaction between PD-1 and PD-L1 was evaluated by readings of reporter gene responses. The specific experimental process was as follows:
1) 30 μL of compound or antibody solution was added to each well of a white 96-well plate (Corning, 3610) at different diluted concentrations, and 10 μL of OKT3 (Biolegend, 317326) was then added (the final concentration of OKT3: 1 μg/mL);
2) 20 μL of Raji-PD-L1 cell suspension was added to each well with 5*10^4 cells for each well, and was incubated in an incubator for 20 min;
3) 20 μL of Jurkat/NF-Kb-luc/PD-1 cell suspension was added to each well with 5*10^4 cells for each well, and was well mixed, and 6 hrs later, Bright-glo (Promega, E2620) was applied and plates were read on Envision;
4) The reading of each well treated with the compound was compared with the reading of each well treated with DMSO to obtain the activation fold of the compound; and
5) EC50 values of compounds of the examples of the present invention were determined by non-linear regression analysis of activation folds at different compound concentrations.

T1 sequence (Q9NZQ7 19-238 limits assumed): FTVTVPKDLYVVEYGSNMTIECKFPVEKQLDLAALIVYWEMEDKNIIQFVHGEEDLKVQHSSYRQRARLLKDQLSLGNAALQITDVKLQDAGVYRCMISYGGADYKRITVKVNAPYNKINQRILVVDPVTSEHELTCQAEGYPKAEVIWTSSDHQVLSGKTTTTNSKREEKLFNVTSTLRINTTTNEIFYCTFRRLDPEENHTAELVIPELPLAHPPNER
T2 sequence (Q9NZQ7 19-290): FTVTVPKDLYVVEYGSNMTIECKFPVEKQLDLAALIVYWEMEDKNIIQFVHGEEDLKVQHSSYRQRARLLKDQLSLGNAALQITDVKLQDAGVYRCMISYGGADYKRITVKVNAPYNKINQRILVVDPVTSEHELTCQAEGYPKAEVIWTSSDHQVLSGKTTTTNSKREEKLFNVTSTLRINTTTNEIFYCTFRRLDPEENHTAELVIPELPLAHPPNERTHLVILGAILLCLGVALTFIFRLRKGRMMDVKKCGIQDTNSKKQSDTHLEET

IC50 [1] [nM] | EC50 [2] [nM] | Structure (SMILES)
0.95 | 25.2 | Cc1c(NC(=O)c2cc(C3CC3)c(CNCCO)cn2)cccc1-c1cccc(NC(=O)c2cc(C3CC3)c(CN[C@@H](CO)C(=O)O)cn2)c1C [Example 37, ((4-cyclopropyl-6-((3′-(4-cyclopropyl-5-(((2-hydroxyethyl)amino)methyl)picolinamido)-2,2′-dimethyl-[1,1′-biphenyl]-3-yl)carbamoyl)pyridin-3-yl)methyl)-L-serine]
2.05 | 87.1 | Cc1c(NC(=O)c2cc(C3CC3)c(CNC3CCOCC3)cn2)cccc1-c1cccc(NC(=O)c2cc(C3CC3)c(CN[C@H](CO)C(=O)O)cn2)c1C [Example 51, ((4-cyclopropyl-6-((3′-(4-cyclopropyl-5-(((tetrahydro-2H-pyran-4-yl)amino)methyl)picolinamido)-2,2′-dimethyl-[1,1′-biphenyl]-3-yl)carbamoyl)pyridin-3-yl)methyl)-D-serine]
3.38 | 120 | Cc1c(NC(=O)c2cc(C3CC3)c(CNC3CC3)cn2)cccc1-c1cccc(NC(=O)c2cc(C3CC3)c(CN3CCCC[C@H]3C(=O)O)cn2)c1C [Example 10, (S)-1-((4-cyclopropyl-6-((3′-(4-cyclopropyl-5-((cyclopropylamino)methyl)picolinamido)-2,2′-dimethyl-[1,1′-biphenyl]-3-yl)carbamoyl)pyridin-3-yl)methyl) piperidine-2-carboxylic acid]
0.49 | 24.1 | CNCc1cnc(C(=O)Nc2cccc(-c3cccc(NC(=O)c4cc(C5CC5)c(CN5CCCC[C@H]5C(=O)O)cn4)c3C)c2C)cc1C1CC1 [Example 7, (S)-1-((4-cyclopropyl-6-((3′-(4-cyclopropyl-5-((methylamino)methyl)picolinamido)-2,2′-dimethyl-[1,1′-biphenyl]-3-yl)carbamoyl)pyridin-3-yl)methyl) piperidine-2-carboxylic acid]
1.85 | 44.8 | Cc1c(NC(=O)c2cc(C3CC3)c(CN[C@@H](CO)C(=O)O)cn2)cccc1-c1cccc(NC(=O)c2cc(C3CC3)c(CN3CCCC[C@H]3C(=O)O)cn2)c1C [Example 32, (S)-1-((6-((3′-(5-((((S)-1-carboxy-2-hydroxyethyl)amino)methyl)-4-cyclopropylpicolinamido)-2,2′-dimethyl-[1,1′-biphenyl]-3-yl)carbamoyl)-4-cyclopropylpyridin-3-yl)methyl) piperidine-2-carboxylic acid]
1.48 | 11.8 | Cc1c(NC(=O)c2cc(C3CC3)c(CN3CC[C@@H](O)C3)cn2)cccc1-c1cccc(NC(=O)c2cc(C3CC3)c(CN3CCCC[C@H]3C(=O)O)cn2)c1C [Example 13, (S)-1-((4-cyclopropyl-6-((3′-(4-cyclopropyl-5-(((R)-3-hydroxypyrrolidin-1-yl)methyl)picolinamido)-2,2′-dimethyl-[1,1′-biphenyl]-3-yl)carbamoyl)pyridin-3-yl)methyl)piperidine-2-carboxylic acid]
0.68 | 15.1 | Cc1c(NC(=O)c2cc(C3CC3)c(CN3CC(C)(O)C3)cn2)cccc1-c1cccc(NC(=O)c2cc(C3CC3)c(CN3CCCC[C@H]3C(=O)O)cn2)c1C [Example 15, (S)-1-((4-cyclopropyl-6-((3′-(4-cyclopropyl-5-((3-hydroxy-3-methylazetidin-1-yl)methyl)picolinamido)-2,2′-dimethyl-[1,1′-biphenyl]-3-yl)carbamoyl)pyridin-3-yl)methyl)piperidine-2-carboxylic acid]
4.17 | 35.3 | Cc1c(NC(=O)c2cc(C3CC3)c(CN3CCC[C@@H]3CO)cn2)cccc1-c1cccc(NC(=O)c2cc(C3CC3)c(CN3CCCC[C@H]3C(=O)O)cn2)c1C [Example 28, (S)-1-((4-cyclopropyl-6-((3′-(4-cyclopropyl-5-(((R)-2-(hydroxymethyl)pyrolidin-1-yl)methyl)picolinamido)-2, 2′-dimethyl-[1,1′-biphenyl]-3-yl)carbamoyl)pyridin-3-yl)methyl)piperidine-2-carboxylic acid]
0.72 | 52 | Cc1c(NC(=O)c2cc(C3CC3)c(CN[C@H](CO)C(=O)O)cn2)cccc1-c1cccc(NC(=O)c2cc(C3CC3)c(CN3CC(C)(O)C3)cn2)c1C [Example 36, ((4-cyclopropyl-6-((3′-(4-cyclopropyl-5-((3-hydroxy-3-methylazetidin-1-yl)methyl)picolinamido)-2,2′-dimethyl-[1,1′-biphenyl]-3-yl)carbamoyl)pyridin-3-yl)methyl)-D-serine]
0.61 | 19.7 | Cc1c(NC(=O)c2cc(C3CC3)c(CN[C@@](C)(CO)C(=O)O)cn2)cccc1-c1cccc(NC(=O)c2cc(C3CC3)c(CN[C@@](C)(CO)C(=O)O)cn2)c1C [Example 67, (2S,2′S)-2,2′-((((((2,2′-dimethyl-[1,1′-biphenyl]-3,3′-diyl)bis(azanediyl))bis(carbonyl))bis(4-cyclopropylpyridine-6,3-diyl))bis(methylene))bis(azanediyl))bis(3-hydroxy-2-methylpropanoic acid)]
1.07 | 14.9 | Cc1c(NC(=O)c2cc(C3CC3)c(CNC(C)CO)cn2)cccc1-c1cccc(NC(=O)c2cc(C3CC3)c(CN3CCCC[C@H]3C(=O)O)cn2)c1C (stereo in doubt) [Example 3, (S)-1-((4-cyclopropyl-6-((3′-(4-cyclopropyl-5-((((R)-1-hydroxypropan-2-yl)amino)methyl)picolinamido)-2,2′-dimethyl-[1,1′-biphenyl]-3-yl)carbamoyl)pyridin-3-yl)methyl)piperidine-2-carboxylic acid]
3.61 | 86.8 | Cc1c(NC(=O)c2cc(C3CC3)c(CN[C@H](CO)C(=O)O)cn2)cccc1-c1cccc(NC(=O)c2cc(C3CC3)c(CN3CC[C@@H](O)C3)cn2)c1C [Example 53, ((4-cyclopropyl-6-((3′-(4-cyclopropyl-5-(((R)-3-hydroxypyrrolidin-1-yl)methyl)picolinamido)-2,2′-dimethyl-[1, 1′-biphenyl]-3-yl)carbamoyl)pyridin-3-yl)methyl)-D-serine]
0.97 | 18.1 | Cc1c(NC(=O)c2cc(C3CC3)c(CN[C@H](CO)C(=O)O)cn2)cccc1-c1cccc(NC(=O)c2cc(C3CC3)c(CN3CCCC[C@H]3C(=O)O)cn2)c1C [Example 30, (S)-1-((6-((3′-(5-((((R)-1-carboxy-2-hydroxyethyl)amino)methyl)-4-cyclopropylpicolinamido)-2,2′-dimethyl-[1,1′-biphenyl]-3-yl)carbamoyl)-4-cyclopropylpyridin-3-yl)methyl)piperidine-2-carboxylic acid]
3.22 | 264 | CCOC(=O)[C@@H](CO)NCc1cnc(C(=O)Nc2cccc(-c3cccc(NC(=O)c4cc(C5CC5)c(CN[C@@H](C)CO)cn4)c3C)c2C)cc1C1CC1 [Example 39-1, Ethyl ((4-cyclopropyl-6-((3′-(4-cyclopropyl-5-((((S)-1-hydroxypropan-2-yl)amino)methyl)picolinamido)-2,2′-dimethyl-[1,1′-biphenyl]-3-yl)carbamoyl)pyridin-3-yl)methyl)-D-serinate]
0.67 | 37.3 | Cc1c(NC(=O)c2cc(C3CC3)c(CN[C@H](C)CO)cn2)cccc1-c1cccc(NC(=O)c2cc(C3CC3)c(CN[C@H](CO)C(=O)O)cn2)c1C [Example 38, ((4-cyclopropyl-6-((3′-(4-cyclopropyl-5-((((R)-1-hydroxypropan-2-yl)amino)methyl)picolinamido)-2,2-dimethyl-[1,1′-biphenyl]-3-yl)carbamoyl)pyridin-3-yl)methyl)-D-serine]
